The target in the experiment is bovine cardiac myofibrils (full-length cardiac myosin ATPase in the native sarcomere) (Bos taurus (Bovine), UniProt Q9BE39). As to the kind of experiment: Skinned bovine cardiac myofibril ATPase assay (PK/LDH-coupled). The class given is biochemical. To be noted: Ca2+ activating to 75% of maximal rate; for CDMF75 IC15: concentration giving 15% inhibition; for IC50: read-out: CDMF75 IC50. Put shortly:
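Triton-skinned bovine left-ventricle myofibrils (1 mg/mL) in PM 12 buffer (12 mM PIPES, 2 mM MgCl2, pH 6.8) with 50 μM ATP, 0.6 mM EGTA and CaCl2 set for 50% or 75% activation. Steady-state ATPase inhibition followed by PK/LDH-coupled NADH oxidation at 340 nm.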

Molecules are shown by their SMILES.

bovine cardiac myofibrils (full-length cardiac myosin ATPase in the native sarcomere), sequence (Q9BE39 whole entry): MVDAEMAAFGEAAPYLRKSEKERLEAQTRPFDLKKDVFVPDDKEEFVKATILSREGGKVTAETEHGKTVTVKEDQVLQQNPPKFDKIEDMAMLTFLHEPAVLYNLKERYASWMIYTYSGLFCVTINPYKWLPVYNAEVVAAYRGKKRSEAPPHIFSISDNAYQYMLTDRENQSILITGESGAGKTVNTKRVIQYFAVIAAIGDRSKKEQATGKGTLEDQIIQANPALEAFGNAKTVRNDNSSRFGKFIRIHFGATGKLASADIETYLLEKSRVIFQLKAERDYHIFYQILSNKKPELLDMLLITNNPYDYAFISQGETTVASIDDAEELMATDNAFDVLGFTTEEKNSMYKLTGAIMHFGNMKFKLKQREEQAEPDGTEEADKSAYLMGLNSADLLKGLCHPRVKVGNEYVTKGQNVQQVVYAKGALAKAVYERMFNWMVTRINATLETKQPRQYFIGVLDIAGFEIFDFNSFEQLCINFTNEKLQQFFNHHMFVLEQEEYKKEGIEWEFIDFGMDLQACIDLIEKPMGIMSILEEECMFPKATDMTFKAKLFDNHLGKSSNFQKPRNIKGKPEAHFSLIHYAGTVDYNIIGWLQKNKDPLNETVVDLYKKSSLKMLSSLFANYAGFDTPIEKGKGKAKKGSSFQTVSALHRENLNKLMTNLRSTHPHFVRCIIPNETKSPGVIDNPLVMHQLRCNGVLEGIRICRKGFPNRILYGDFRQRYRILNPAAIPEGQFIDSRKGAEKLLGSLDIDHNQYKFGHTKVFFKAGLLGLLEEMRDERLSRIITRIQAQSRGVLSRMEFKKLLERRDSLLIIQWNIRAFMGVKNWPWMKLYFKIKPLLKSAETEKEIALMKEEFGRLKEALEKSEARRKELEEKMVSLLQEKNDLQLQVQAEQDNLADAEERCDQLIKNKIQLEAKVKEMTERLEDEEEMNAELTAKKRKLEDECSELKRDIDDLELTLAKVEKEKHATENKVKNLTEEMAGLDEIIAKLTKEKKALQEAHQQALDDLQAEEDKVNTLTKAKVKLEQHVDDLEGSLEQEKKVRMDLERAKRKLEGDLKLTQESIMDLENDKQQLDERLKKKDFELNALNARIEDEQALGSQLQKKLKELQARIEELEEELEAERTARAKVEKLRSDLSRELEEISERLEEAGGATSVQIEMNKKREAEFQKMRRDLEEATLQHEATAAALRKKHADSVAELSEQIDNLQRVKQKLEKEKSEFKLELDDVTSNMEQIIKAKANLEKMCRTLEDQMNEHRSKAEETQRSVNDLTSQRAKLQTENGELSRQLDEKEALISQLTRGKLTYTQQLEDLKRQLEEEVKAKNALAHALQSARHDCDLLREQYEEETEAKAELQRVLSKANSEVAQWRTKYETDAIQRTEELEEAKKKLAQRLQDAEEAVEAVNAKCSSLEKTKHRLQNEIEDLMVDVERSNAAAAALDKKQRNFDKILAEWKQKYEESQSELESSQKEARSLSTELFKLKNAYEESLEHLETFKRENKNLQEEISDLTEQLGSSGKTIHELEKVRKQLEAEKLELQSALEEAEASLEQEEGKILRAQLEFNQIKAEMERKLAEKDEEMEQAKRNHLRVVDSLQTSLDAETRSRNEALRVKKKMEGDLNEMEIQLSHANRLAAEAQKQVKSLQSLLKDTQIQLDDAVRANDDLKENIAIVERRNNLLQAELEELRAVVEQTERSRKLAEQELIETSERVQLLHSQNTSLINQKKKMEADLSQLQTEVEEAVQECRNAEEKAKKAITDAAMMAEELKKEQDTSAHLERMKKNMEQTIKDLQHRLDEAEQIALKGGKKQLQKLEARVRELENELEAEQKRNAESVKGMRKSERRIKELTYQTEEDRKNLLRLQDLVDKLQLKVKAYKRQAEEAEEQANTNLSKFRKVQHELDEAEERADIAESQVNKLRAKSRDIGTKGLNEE
bovine cardiac myofibrils (full-length cardiac myosin ATPase in the native sarcomere), sequence (P85100 whole entry partner): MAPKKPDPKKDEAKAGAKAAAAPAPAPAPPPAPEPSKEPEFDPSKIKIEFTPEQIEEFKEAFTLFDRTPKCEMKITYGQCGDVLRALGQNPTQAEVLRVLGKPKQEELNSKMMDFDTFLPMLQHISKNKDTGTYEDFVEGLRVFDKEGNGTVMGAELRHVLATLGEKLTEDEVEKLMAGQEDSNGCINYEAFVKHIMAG
bovine cardiac myofibrils (full-length cardiac myosin ATPase in the native sarcomere), sequence (Q3SZE5 whole entry partner): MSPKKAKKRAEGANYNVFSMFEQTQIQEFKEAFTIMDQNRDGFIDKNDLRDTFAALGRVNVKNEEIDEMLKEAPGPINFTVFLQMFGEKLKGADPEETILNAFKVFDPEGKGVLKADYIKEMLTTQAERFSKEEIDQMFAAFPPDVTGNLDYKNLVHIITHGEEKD

A word on the IC50: it is the concentration that gives 50% inhibition. Turning to `Cn1nnnc1C(=O)N[C@@H]1CCc2cc(-c3noc(C(F)F)n3)ccc21` [Compound 189, (R)-N-(5-(5-(difluoromethyl)-1,2,4-oxadiazol-3-yl)-2,3-dihydro-1H-inden-1-yl)-1-methyl-1H-tetrazole-5-carboxamide], the “CDMF75 IC15” value came to 1.4 µM and the half-inhibitory concentration (IC50) is 5.1 µM.
Turning to `CC(C)c1nc(-c2ccc3c(c2)CC[C@H]3NC(=O)c2cn[nH]c2)no1` [Compound 488, (R)-N-(5-(5-isopropyl-1,2,4-oxadiazol-3-yl)-2,3-dihydro-1H-inden-1-yl)-1H-pyrazole-4-carboxamide], the “CDMF75 IC15” value turned out to be 1.1 µM and the IC50 was 4.3 µM.
For `C[C@@H](O)c1nc(-c2ccc3c(c2)CC[C@H]3NC(=O)c2cnn(C)c2)no1` [Compound 550, N-{(1R)-5-[5-((1R)-1-hydroxyethyl)(1,2,4-oxadiazol-3-yl)]indanyl}(1-methylpyrazol-4-yl)carboxamide], the “CDMF75 IC15” value was 13.1 µM and the IC50 came out at 39.2 µM.
For `COC(C)c1nc(-c2ccc3c(c2)CC[C@H]3NC(=O)c2cnn(C)c2)no1` (stereo partly drawn) [Compound 551, N-((1R)-5-(5-(1-methoxyethyl)-1,2,4-oxadiazol-3-yl)-2,3-dihydro-1H-inden-1-yl)-1-methyl-1H-pyrazole-4-carboxamide], in that order: 3.6 µM and 14.6 µM.
For `Cc1cc(-c2ccc3c(c2)OC[C@H]3NC(=O)c2cnn(C)c2)no1` [Compound 426, (S)-1-methyl-N-(6-(5-methylisoxazol-3-yl)-2,3-dihydrobenzofuran-3-yl)-1H-pyrazole-4-carboxamide], in that order: 0.8 µM and 2.6 µM.
Taken in the same sequence, the figures for `[2H]C([2H])([2H])c1nc(-c2ccc3c(c2)CC[C@H]3NC(=O)OC)no1` [Compound 308, methyl (R)-(5-(5-(methyl-d3)-1,2,4-oxadiazol-3-yl)-2,3-dihydro-1H-inden-1-yl)carbamate] were 0.7 µM and 2.8 µM.
For the compound `Cc1nn(C)cc1C(=O)N[C@@H]1CCc2cc(-c3noc(C4CCC4)n3)ccc21` [Compound 150, (R)-N-(5-(5-cyclobutyl-1,2,4-oxadiazol-3-yl)-2,3-dihydro-1H-inden-1-yl)-1,3-dimethyl-1H-pyrazole-4-carboxamide], the “CDMF75 IC15” value was determined as 0.3 µM and the IC50 came out at 1.2 µM.
For `CCc1cc(-c2ccc3c(c2)CC[C@H]3NC(=O)c2cnc(C)o2)no1` [Compound 415, (R)-N-(5-(5-ethylisoxazol-3-yl)-2,3-dihydro-1H-inden-1-yl)-2-methyloxazole-5-carboxamide], in that order: 0.5 µM and 1.7 µM.
Taken in the same sequence, the figures for `CC(=O)N[C@@H]1COc2cc(-c3noc(C)n3)ccc21` [Compound 450, (S)-N-(6-(5-methyl-1,2,4-oxadiazol-3-yl)-2,3-dihydrobenzofuran-3-yl)acetamide] were 3.2 µM and 12.4 µM.
Taken in the same sequence, the figures for `CCc1nc(-c2ccc3c(c2)OC[C@H]3NC(=O)c2ccnn2C)no1` [Compound 228, (S)—N-(6-(5-ethyl-1,2,4-oxadiazol-3-yl)-2,3-dihydrobenzofuran-3-yl)-1-methyl-1H-pyrazole-5-carboxamide] were 0.3 µM and 0.8 µM.
For `Cc1nc(-c2ccc3c(c2)CCC3NC(=O)c2ocnc2C2CC2)no1` (stereo not drawn) [Compound 52, 4-cyclopropyl-N-(5-(5-methyl-1,2,4-oxadiazol-3-yl)-2,3-dihydro-1H-inden-1-yl)oxazole-5-carboxamide], the “CDMF75 IC15” value was found to be 1.6 µM and the IC50 was determined as 4.9 µM.
For `CCc1nc(-c2ccc3c(c2)CC[C@H]3NC(=O)c2cc(C)ncn2)no1` [Compound 631, (R)-N-(5-(5-ethyl-1,2,4-oxadiazol-3-yl)-2,3-dihydro-1H-inden-1-yl)-6-methylpyrimidine-4-carboxamide], in that order: 0.5 µM and 1.8 µM.

Values taken from patent US12065436B2, “Cardiac sarcomere inhibitors” (Cytokinetics, Inc., priority 2018, dated 2024).
